According to a melting point compilation (Tetko et al.; mined from patent text by program, amines drawn as free bases though some values may be those of a salt):

| Structure (SMILES) | melting point |
| --- | --- |
| CC(C)[C@@H]1CC[C@@H](C)C[C@H]1O[C@@H]1OC(=O)[C@@H]2[C@H]1C2(C)C | 82 °C |
| CC(C)n1c(C=O)c(-c2ccc(F)cc2)c(-c2ccccc2)c1C(=O)Nc1cccc(C(=O)N(C)C)c1 | 202 to 203 °C |
| Cc1cc(Cc2cc(C(F)(F)F)cc(C(F)(F)F)c2)ccc1NC(=O)c1cccc(Cl)c1C(=O)N[C@@H](C)CS(C)(=O)=O | 155 to 158 °C |
| COc1ccccc1Oc1c(NS(=O)(=O)c2ccc(C(C)(C)C)cc2)nc(-c2ncccn2)nc1OCCOc1ccc(C(C)O)cc1 (stereo unspecified) | 191 to 194 °C |
| Fc1ccc(-c2coc(-c3cn([C@H]4CN5CCC4CC5)nn3)c2)cn1 | 210 °C |
| CCOC(=O)c1cn(C2CC2)c2nc(N3CCC(NC(C)=O)C3)c(F)cc2c1=O (stereo unspecified) | 246 to 248 °C |
| O=C(O)c1cc(OCc2ccccc2)c(C(=O)c2ccccc2)c([N+](=O)[O-])c1 | 205 to 207 °C |
| COc1ccc(N2CCN(Cc3n[nH]c4c(I)cccc34)CC2)cc1 | 185 to 186 °C |
| CC(C)c1ccc(C(=O)N2CCCCC2)c(NS(=O)(=O)c2cccc3nsnc23)c1 | 125 to 127 °C |
| N#Cc1cccc(C2=NN(C(=O)Nc3ccc(OC(F)(F)F)cc3)CCC2n2cc(Cl)cn2)c1 (stereo unspecified) | 216 °C |
| OCc1ncn2cc(Br)sc12 | 104 to 105 °C |
| Cc1ccc(C(=O)Nc2ccc(CN3CCN(C)CC3)c(C(F)(F)F)c2)cc1C#Cc1ccc(NC2CC2)nn1 | 68 to 69 °C |
| C=C(CC(C)C)C(=O)O | 101 to 105 °C |
| CCOC(=O)c1c2n(c3cc(N4CCN(C(C)=O)CC4)c(Cl)cc3c1=O)CS2 | 266 to 268 °C |
| Nc1cccc2c1ncc1nc3n(c12)CCCC3 | 275 to 278 °C |
| CC(C)(C)OC(=O)C(=[N+]=[N-])C(=O)C(SCc1ccccc1)C1CC(=O)N1 (stereo unspecified) | 119 °C |
| CCn1nccc1C(=O)Nc1cc(Oc2ccc3nc(NC(=O)C4CC4)cn3n2)ccc1F | 209 °C |
| Cc1ccc(OC2CCN(C(=O)CNc3ccc4[nH]c(=O)sc4c3)CC2)cc1 | 189 to 191 °C |

| Structure (SMILES) | melting point |
| --- | --- |
| c1cc(C2CC(c3ccncn3)CC(c3ccncn3)C2)ncn1 (stereo unspecified) | 126 to 128 °C |
| CCCCCCc1ccc(-c2ccc(-c3ncc(C(N)=O)cn3)cc2)cc1 | > 260 °C |
| C=C(Br)Cc1c(O)ccc2c(C)cc(=O)oc12 | 201 to 202 °C |
| N#Cc1ccc(N2C(=O)NC(=Cc3ccccc3O)C2=O)c2ccccc12 | 146 to 149 °C |
| COc1cc(C(CCN(C)C)C(N)=O)cc(OC)c1OC (stereo unspecified) | 110 to 112 °C |
| Nc1nc(N)c(-c2cccc(Cl)c2Cl)c(C(F)(F)F)n1 | 218 to 219 °C |
| CC(=C1SC(=O)NC1=O)c1ccc(OCCCOc2c(-c3ccc(F)cc3)n(C)c3ccccc3c2=O)cc1 | 262 to 264 °C |
| CCOCCn1c(C2CCN(CCc3ccc(C(C)(C)C)cc3)CC2)nc2ccccc21 | 138 to 140 °C |
| Fc1ccc(CNc2nc(OCc3ccccc3)nc(OCC(F)(F)F)n2)cc1 | 101 to 103 °C |
| CCOC(=O)c1cnc2c(c(C)nn2CC)c1Cl | 70 to 74 °C |
| O=C1NCC(Cn2cncn2)(c2ccc(Cl)cc2Cl)O1 (stereo unspecified) | 223 °C |
| CC1(C)OCC(C(CS(=O)(=O)c2ccc(-c3ccc(C(F)(F)F)cc3)cc2)N(O)C=O)O1 (stereo unspecified) | 204 to 205 °C |
| COC(=O)c1ccc2occ(-c3ccc(SC)cc3)c2c1 | 95 to 96 °C |
| NC(=O)[C@@H]1[C@H](Nc2c(Br)cnc3[nH]c(-c4ccsc4)nc23)[C@H]2C=C[C@@H]1C2 | 238 to 241 °C |
| CCN(CC(=O)O)c1ccc(OCC(C)(C)C)c(C#N)c1 | 78 °C |
| O=C(NCc1cncc(F)c1)c1ccc(S(=O)(=O)n2cc(-c3ccccc3)c3ccccc32)cc1 | 131 °C |
| COc1ccc(C(=O)Nc2c(Cl)cncc2Cl)c2c1OCC2CC(=O)Nc1c(Cl)cncc1Cl (stereo unspecified) | > 300 °C |
| C=CCNC(=O)N1CCc2cc(S(=O)(=O)N3CC(c4ccccc4)NC3=O)ccc21 (stereo unspecified) | 217 to 219 °C |
